Columns and labels:
Type in all cases: in vivo, rat
aged-impaired rats [1] = assay: Radial arm maze with 5-hr delay, acute Compound 1 via PO; details: Compound 1 10 mg/kg PO, vs vehicle
Procedure: Food-deprived aged rats maintained at approximately 85% free-feeding weights were tested for their hippocampal-dependent memory in a radial arm maze task under varying doses of Compound 1 (a GABAA α5 receptor agonist):
The radial arm maze apparatus used consisted of eight equidistantly spaced arms. An elevated maze arm (7 cm width×75 cm length) projected from each facet of an octagonal center platform (30 cm diameter, 51.5 cm height). Clear side walls on the arms were 10 cm high and are angled at 65° to form a trough. A food well (4 cm diameter, 2 cm deep) was located at the distal end of each arm. Froot Loops™ (Kellogg Company) were used as rewards. Blocks constructed of Plexiglass™ (30 cm height×12 cm width) could be positioned to prevent entry to any arm. Numerous extra maze cues surrounding the apparatus were also provided. The rats were initially subjected to pre-training (Chappell et al., 1998). Pre-training consisted of a habituation phase, a training phase on the standard win-shift task and another training phase in which a progressively longer delay was imposed between presentation of a subset of arms designated by the experimenter (five arms available and three arms blocked) and completion of the eight-arm win-shift task (i.e., with all eight arms available).
In the habituation phase, rats were familiarized to the maze for a 10-minute session on several days. […]

aged-impaired rats [2] = assay: Water maze probe test, acute and chronic Compound 1
Text: Rats were trained and tested in a novel water maze environment to assess the effect of the treatments. The water maze used here was housed in a different room and was surrounded by curtains with a novel set of patterns relative to the maze used for initial assessment of cognitive status. The training and testing protocol used was identical to the spatial learning-activated protocol described in Haberman et al., (2008, Proceedings of the National Academy of Sciences USA, 105, 10601-10606). The task required rats to swim to a […] escape platform at a fixed location in the presence of spatial cues for 8 training trials with an inter-trial interval of 8 min. An hour after the last training trial, rats were given a probe test in the absence of the escape platform (free swim) to assess the memory of the platform location as measured by time spent searching at the target location.
To assess the acute and chronic effects of Compound 1 treatment, rats received 15-16 days of drug injections with assessment on the water maze on the first day (acute effect) and last day (chronic effect) of treatment. Different surrounding spatial cues and escape location in the water maze were used for the initial and subsequent assessments. Compound 1 was given at 10 mg/kg using intraperitoneal injection (IP) at a volume of 1 ml/kg. […]

aged-impaired rats [3] = assay: Radial arm maze, Compound 1 IP alone and in combination with levetiracetam

COCc1nnc2n1Cc1c(C#Cc3cnc(OC)s3)ncn1-c1ccc(Cl)cc1-2 [Compound 1]
number of errors in the radial arm maze (aged-impaired rats [1]): fewer errors | time in the target quadrant of the Morris Water Maze (aged-impaired rats [2]; acute, Compound 1 10 mg/kg IP (first day)): spent more time in the target quadrant | time in the target quadrant of the Morris Water Maze (aged-impaired rats [2]; chronic, Compound 1 10 mg/kg IP (last day of 15-16 days)): spent more time in the target quadrant | efficacy of Compound 1 on its own in the radial arm maze (aged-impaired rats [3]; 2.5 mg/kg IP): subtherapeutic | efficacy of Compound 1 on its own in the radial arm maze (aged-impaired rats [3]; 5 mg/kg IP): subtherapeutic

From patent US20220062296A1, “COMBINATIONS OF GABAA ALPHA 5 AGONISTS AND SV2A INHIBITORS AND METHODS OF USING IN THE TREATMENT OF COGNITIVE IMPAIRMENT” (AGENEBIO, INC., priority 2020, published 2022)
